Results published in PubChem BioAssay (NCI).
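A five-concentration, 48-hour dose response in 96-well plates underlies each endpoint, interpolated linearly between surrounding concentrations. TGI is the concentration that stops growth completely.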

Legend:
Experiment in all cases: NCI tumour cell line growth inhibition, 48 h
786-0 renal = system: 786-0 renal
A498 renal = system: A498 renal
A549 NSCLC = system: A549 NSCLC
ACHN renal = system: ACHN renal
CAKI-1 renal = system: CAKI-1 renal
CCRF-CEM leukemia = system: CCRF-CEM leukemia
COLO 205 colon = system: COLO 205 colon
DLD-1 colon = system: DLD-1 colon
DMS 114 small cell lung = system: DMS 114 small cell lung
EKVX NSCLC = system: EKVX NSCLC
HCC-2998 colon = system: HCC-2998 colon
HCT-116 colon = system: HCT-116 colon
HCT-15 colon = system: HCT-15 colon
HL-60(TB) leukemia = system: HL-60(TB) leukemia
HOP-62 NSCLC = system: HOP-62 NSCLC
HOP-92 NSCLC = system: HOP-92 NSCLC
IGROV1 ovarian = system: IGROV1 ovarian
K-562 leukemia = system: K-562 leukemia
KM12 colon = system: KM12 colon
KM20L2 colon = system: KM20L2 colon
LOX IMVI melanoma = system: LOX IMVI melanoma
LXFL 529 NSCLC = system: LXFL 529 NSCLC
M14 melanoma = system: M14 melanoma
M19-MEL melanoma = system: M19-MEL melanoma
MALME-3M melanoma = system: MALME-3M melanoma
MOLT-4 leukemia = system: MOLT-4 leukemia
NCI-H460 lung = system: NCI-H460 lung
OVCAR-3 ovarian = system: OVCAR-3 ovarian
OVCAR-4 ovarian = system: OVCAR-4 ovarian
OVCAR-5 ovarian = system: OVCAR-5 ovarian
OVCAR-8 ovarian = system: OVCAR-8 ovarian
RPMI-8226 leukemia = system: RPMI-8226 leukemia
SF-268 CNS = system: SF-268 CNS
SF-295 CNS = system: SF-295 CNS
SF-539 CNS = system: SF-539 CNS
SK-MEL-2 melanoma = system: SK-MEL-2 melanoma
SK-MEL-28 melanoma = system: SK-MEL-28 melanoma
SK-MEL-5 melanoma = system: SK-MEL-5 melanoma
SK-OV-3 ovarian = system: SK-OV-3 ovarian
SNB-19 CNS = system: SNB-19 CNS
SNB-75 CNS = system: SNB-75 CNS
SNB-78 CNS = system: SNB-78 CNS
SW-620 colon = system: SW-620 colon
TK-10 renal = system: TK-10 renal
U251 CNS = system: U251 CNS
UACC-257 melanoma = system: UACC-257 melanoma
UACC-62 melanoma = system: UACC-62 melanoma
UO-31 renal = system: UO-31 renal
BT-549 breast = system: BT-549 breast
DU-145 prostate = system: DU-145 prostate
HS 578T breast = system: HS 578T breast
HT29 colon = system: HT29 colon
MCF7 breast = system: MCF7 breast
MDA-MB-231 breast = system: MDA-MB-231 breast
MDA-MB-435 = system: MDA-MB-435
MDA-N = system: MDA-N
NCI-H226 lung = system: NCI-H226 lung
NCI-H23 lung = system: NCI-H23 lung
NCI-H522 lung = system: NCI-H522 lung
NCI/ADR-RES ovarian = system: NCI/ADR-RES ovarian
PC-3 prostate = system: PC-3 prostate
RXF 393 renal = system: RXF 393 renal
SN12C renal = system: SN12C renal
SR leukemia = system: SR leukemia
T-47D breast = system: T-47D breast

Question: Which results are given for `COc1cccc(NC(=O)/C(CC(=O)CC(c2ccccc2)c2c(O)c3ccccc3oc2=O)=N\NC(C)(C)C)c1OC` (configuration not stated)?
Answer: TGI (786-0 renal): > 100 µM; TGI (A498 renal): > 100 µM; TGI (A549 NSCLC): > 100 µM; TGI (ACHN renal): > 100 µM; TGI (CAKI-1 renal): > 100 µM; TGI (CCRF-CEM leukemia): > 100 µM; TGI (COLO 205 colon): > 100 µM; TGI (DLD-1 colon): > 100 µM; TGI (DMS 114 small cell lung): > 100 µM; TGI (EKVX NSCLC): > 100 µM; TGI (HCC-2998 colon): > 100 µM; TGI (HCT-116 colon): > 100 µM; TGI (HCT-15 colon): > 100 µM; TGI (HL-60(TB) leukemia): > 100 µM; TGI (HOP-62 NSCLC): > 100 µM; TGI (HOP-92 NSCLC): > 100 µM; TGI (IGROV1 ovarian): > 100 µM; TGI (K-562 leukemia): > 100 µM; TGI (KM12 colon): > 100 µM; TGI (KM20L2 colon): > 100 µM; TGI (LOX IMVI melanoma): > 100 µM; TGI (LXFL 529 NSCLC): > 100 µM; TGI (M14 melanoma): > 100 µM; TGI (M19-MEL melanoma): > 100 µM; TGI (MALME-3M melanoma): > 100 µM; TGI (MOLT-4 leukemia): > 100 µM; TGI (NCI-H460 lung): > 100 µM; TGI (OVCAR-3 ovarian): > 100 µM; TGI (OVCAR-4 ovarian): > 100 µM; TGI (OVCAR-5 ovarian): > 100 µM; TGI (OVCAR-8 ovarian): > 100 µM; TGI (RPMI-8226 leukemia): > 100 µM; TGI (SF-268 CNS): > 100 µM; TGI (SF-295 CNS): > 100 µM; TGI (SF-539 CNS): > 100 µM; TGI (SK-MEL-2 melanoma): > 100 µM; TGI (SK-MEL-28 melanoma): > 100 µM; TGI (SK-MEL-5 melanoma): > 100 µM; TGI (SK-OV-3 ovarian): > 100 µM; TGI (SNB-19 CNS): > 100 µM; TGI (SNB-75 CNS): > 100 µM; TGI (SNB-78 CNS): > 100 µM; TGI (SW-620 colon): > 100 µM; TGI (TK-10 renal): > 100 µM; TGI (U251 CNS): > 100 µM; TGI (UACC-257 melanoma): > 100 µM; TGI (UACC-62 melanoma): > 100 µM; TGI (UO-31 renal): > 100 µM

Question: With `Oc1cc(-c2ccccc2)cn2c1nc1ccccc12` as the compound, how does the TGI (786-0 renal) read?
Answer: > 79.7 µM

Question: And the TGI (A498 renal)?
Answer: > 100 µM

Question: What about the TGI (A549 NSCLC) of the same compound?
Answer: > 100 µM

Question: What about the TGI (ACHN renal) of the same compound?
Answer: > 100 µM

Question: What about the TGI (BT-549 breast) of the same compound?
Answer: > 100 µM

Question: What about the TGI (CAKI-1 renal) of the same compound?
Answer: > 100 µM

Question: What about the TGI (CCRF-CEM leukemia) of the same compound?
Answer: > 100 µM

Question: What about the TGI (COLO 205 colon) of the same compound?
Answer: > 100 µM

Question: And the TGI (DU-145 prostate)?
Answer: > 31.6 µM

Question: What about the TGI (EKVX NSCLC) of the same compound?
Answer: > 100 µM

Question: And the TGI (HCC-2998 colon)?
Answer: > 100 µM

Question: What about the TGI (HCT-116 colon) of the same compound?
Answer: > 100 µM

Question: And the TGI (HCT-15 colon)?
Answer: > 100 µM

Question: And the TGI (HL-60(TB) leukemia)?
Answer: 9.4 µM

Question: And the TGI (HOP-62 NSCLC)?
Answer: > 52.6 µM

Question: And the TGI (HOP-92 NSCLC)?
Answer: > 100 µM

Question: And the TGI (HS 578T breast)?
Answer: 47.7 µM

Question: And the TGI (HT29 colon)?
Answer: > 77.7 µM

Question: And the TGI (IGROV1 ovarian)?
Answer: > 38.8 µM

Question: What about the TGI (K-562 leukemia) of the same compound?
Answer: > 100 µM

Question: What about the TGI (KM12 colon) of the same compound?
Answer: > 100 µM

Question: What about the TGI (LOX IMVI melanoma) of the same compound?
Answer: > 100 µM

Question: What about the TGI (M14 melanoma) of the same compound?
Answer: > 100 µM

Question: And the TGI (MALME-3M melanoma)?
Answer: > 100 µM

Question: What about the TGI (MCF7 breast) of the same compound?
Answer: > 100 µM

Question: What about the TGI (MDA-MB-231 breast) of the same compound?
Answer: > 100 µM

Question: And the TGI (MDA-MB-435)?
Answer: > 100 µM

Question: And the TGI (MDA-N)?
Answer: > 100 µM

Question: What about the TGI (MOLT-4 leukemia) of the same compound?
Answer: > 100 µM

Question: What about the TGI (NCI-H226 lung) of the same compound?
Answer: > 100 µM

Question: What about the TGI (NCI-H23 lung) of the same compound?
Answer: > 100 µM

Question: And the TGI (NCI-H460 lung)?
Answer: > 100 µM

Question: What about the TGI (NCI-H522 lung) of the same compound?
Answer: > 25.1 µM

Question: And the TGI (NCI/ADR-RES ovarian)?
Answer: 11.8 µM

Question: And the TGI (OVCAR-3 ovarian)?
Answer: > 100 µM

Question: What about the TGI (OVCAR-4 ovarian) of the same compound?
Answer: > 100 µM

Question: And the TGI (OVCAR-5 ovarian)?
Answer: > 100 µM

Question: What about the TGI (OVCAR-8 ovarian) of the same compound?
Answer: > 54.3 µM

Question: And the TGI (PC-3 prostate)?
Answer: > 100 µM

Question: What about the TGI (RPMI-8226 leukemia) of the same compound?
Answer: > 100 µM

Question: What about the TGI (RXF 393 renal) of the same compound?
Answer: > 100 µM

Question: What about the TGI (SF-268 CNS) of the same compound?
Answer: > 100 µM

Question: What about the TGI (SF-295 CNS) of the same compound?
Answer: > 46.1 µM

Question: And the TGI (SF-539 CNS)?
Answer: > 96.6 µM

Question: And the TGI (SK-MEL-2 melanoma)?
Answer: > 100 µM

Question: What about the TGI (SK-MEL-28 melanoma) of the same compound?
Answer: > 100 µM

Question: And the TGI (SK-MEL-5 melanoma)?
Answer: 29.7 µM

Question: And the TGI (SK-OV-3 ovarian)?
Answer: 6.09 µM

Question: And the TGI (SN12C renal)?
Answer: > 100 µM

Question: What about the TGI (SNB-19 CNS) of the same compound?
Answer: > 100 µM

Question: What about the TGI (SNB-75 CNS) of the same compound?
Answer: > 100 µM

Question: And the TGI (SR leukemia)?
Answer: > 28.5 µM

Question: What about the TGI (SW-620 colon) of the same compound?
Answer: > 100 µM

Question: And the TGI (T-47D breast)?
Answer: > 100 µM

Question: And the TGI (TK-10 renal)?
Answer: > 100 µM

Question: And the TGI (U251 CNS)?
Answer: > 100 µM

Question: What about the TGI (UACC-257 melanoma) of the same compound?
Answer: > 100 µM

Question: What about the TGI (UACC-62 melanoma) of the same compound?
Answer: 19.5 µM

Question: What about the TGI (UO-31 renal) of the same compound?
Answer: > 32.8 µM
